Source: patent US5726156A, “Cytokine regulatory agents and methods of use in pathologies and conditions associated with altered cytokine levels” (Trega Biosciences, Inc., priority 1995, dated 1998)

Tested on: IL-1β-induced hyperalgesia
Assay: IL-1β-induced hyperalgesia, paw pressure test
Format: in vivo, rats
Set-up: dose or concentration left out as unconfirmed
Settings: IP 20 min before IL-1β intraplantar; 2 hr after IL-1
Method: These experiments were performed using a modification of the methods described by Poole etal., Br. J. Pharmacol. 106:489-492 (1992); Foilenfant et al., Br. J. Pharmacol. 98:41-43 (1989); and Randall and Sellito, Arch. Internatl. Pharmacodyn. 111:409-419 (1957), each of which is incorporated herein by reference. Adult male Sprague-Dawley rats (175-275 g) were tested for hyperalgesia by a paw pressure technique using variable pressure instrumentation (IITC Life Sciences; Woodland Hills, Calif.). Rats were acclimated to the housing environment and were handled for three days prior to beginning a training session. On the day before the hyperalgesia experiments was to begin, each rat was placed into a sock and two variable paw pressure tests were performed 15 min apart. […] Approximately 5-10% of the rats were non-responders and were eliminated from further experiments.
Animals that responded to the paw pressure were pretreated by IP injection of various concentrations of EX-2 in a volume of 1 ml/kg (treated) or saline, alone (control). After 20 min, 100 μl of IL-1β (1U/100 μl) was administered to rats via intra plantar injection. Two hr after IL-1 administration, rats were subjected to two additional paw pressure tests and the increase in mm Hg of pressure that could be applied to the EX-2-treated rats as compared to the control rats was determined.

In the case of “Ac-Nle-Gln-His-(D)Phe-Arg-(D)Trp-Gly-NH2 [EX-2]”, the “Reduction in IL-1-induced Hyperalgesia (increase in tolerated paw pressure)” value is reported as 125%.
